# Experimental data: patent publication US9598720B2, “Monomeric and polymeric linkers useful for conjugating biological molecules and other substances” (DAKO Denmark A/S, priority 2005, dated 2017)
# Entries after “also recorded” stand apart in the source; their conditions may differ.
# System: repetitive DNA sequence in the centromere of the human chromosome 17
# Assay: FISH on metaphases with fluorescein labeled PNAs, green signal compared with a red fluorescent PNA
# Conditions: visual and Leica QFISH Measure Intensity
# Source text: The PNA sequence was directed at a repetitive DNA sequence in the centromere of the human chromosome 17, allowing the PNAs to be compared by FISH on metaphases. To erase specimen variation, each of the PNAs was mixed with a red fluorescent PNA directed at the same centromere region on chromosome 17, and the intensity of the red and green signals compared visually and quantified by the “Measure Intensity” function in the Leica QFISH program.
row,Substance,intensity of the green signal
1,"((FlU-L60)2-Lys-L60)2-LyS-L30-AACGGGATAACTGCACCT-NH2 (all peptide nucleic acid (PNA); PNA with Lys(Flu) fluorescein and L30/L90 linkers at the termini, C-terminal amide, further chemistry not fully specified) [Linker derivative 19]",more intense signals
2,"Ac-Lys(Flu)-L30-AACGGGATAACTGCACCT-L30-Lys(Flu)-L90-Lys(Flu)-L90-Lys(Flu)-NH2 (all peptide nucleic acid (PNA); PNA with Lys(Flu) fluorescein and L30/L90 linkers at the termini, C-terminal amide, further chemistry not fully specified) [Linker derivative 15]",more intense signals
3,"H-Lys(Flu)-L30-AACGGGATAACTGCACCT-L30-Lys(Flu)-L90-Lys(Flu)-L90-Lys(Flu)-NH2 (all peptide nucleic acid (PNA); PNA with Lys(Flu) fluorescein and L30/L90 linkers at the termini, C-terminal amide, further chemistry not fully specified) [Linker derivative 16]",more intense signals; also recorded: most intense
